Test results published in patent publication EP1289557B1, “CANCER TREATMENT COMPOSITION CONTAINING AN ANTI-NEOPLASTIC AGENT AND A PDE4 INHIBITOR” (GLAXO GROUP LIMITED, priority 2000, dated 2001).

Legend:
A549 (lung) = assay: Tumor cell growth (sulforhodamine B) after chemoprotectant regimen and paclitaxel; type: cell-based, human; settings: forskolin (100 µM) plus PDE4 inhibitor (1 µM), then paclitaxel (100 nM); cell line not completely inhibited by paclitaxel
Description: (§1) The human tumor cell lines HT-29 (colon: ATCC# HTB 38), RKO (colon, ATCC# HTB 130), lines A549 (lung, ATCC# CCL 185), and MDA468 (breast, ATCC# HTB 132) were obtained from the American Type Culture Collection and maintained in DMEM containing 10% FBS. Tumor cells were grown at 37°C in a humidified atmosphere of 5% CO2. Adherent tumor cells were seeded into 96 well plates and incubated for six hours to allow for attachment. After six hours the chemoprotectants forskolin (100 µM) plus rolipram (1 µM) or forskolin (100 µM) plus Ariflo™ (1µM) were added. After overnight incubation, paclitaxel (100 nM) was added for 24 hours. Cells were then washed free of chemoprotectants and paclitaxel, placed in fresh media, and grown for 5 days. Growth was measured daily using sulforhodamine B (Skehan P. et. al., (1990), J. Nat'l Cancer Inst 82:1107-12). The results are depicted in Figure 8.

HT-29 (colon) = assay: as above; type: cell-based, human; settings: forskolin (100 µM) plus PDE4 inhibitor (1 µM), then paclitaxel (100 nM) 24 hours; versus DMSO pretreatment
Description: as §1

RKO (colon) = assay: as above; type: cell-based, human; settings: forskolin (100 µM) plus PDE4 inhibitor (1 µM), then paclitaxel (100 nM) 24 hours; versus DMSO pretreatment
Description: as §1

[1] = tested on: expanded CD34^+ stem cells; assay: Flow cytometric (FACS) evaluation of percent live cells after chemoprotectant pretreatment and paclitaxel; type: cell-based, Human; settings: pretreatment rolipram (1µM) plus Forskolin (100 µM) 24 hours
Description: Prevention of myelosuppression was shown by protection of neutrophil progenitors by PDE4 inhibitors from the cytotoxic effects of cancer chemotherapeutic agents. In Examples 2-7 a variety of chemically distinct PDE4 inhibitors were tested for their ability to protect neutrophil progenitors. Three methods, more completely described in the following examples, were utilized for a determination of cell survival and ability to produce daughter cells of primary human neutrophil progenitors: (1) a FACS assay which determined the percent of live cells by size and granularity; (2) a colony forming assay which measured the number of CFU-GM progenitors (a specific early stage neutrophil progenitor); and (3) a cell-based EUSA which measured CD15 antigen the value of which was proportional to the number of neutrophil lineage cells. This assay allows evaluation of neutrophil progenitors (cells that can divide and produce daughter neutrophil-lineage cells) at multiple stages of differentiation.
Human bone marrow samples were collected from presumed healthy human donors following informed consent through an agreement with Duke University Medical Center, Durham, North Carolina. Mononuclear cells were isolated using a 1.077 Ficoll-Paque gradient according to the published procedure (Dornsife, RE et al., Antimicrob Agents Chemother, 35: 322-328, (1991)) and were suspended in HBSS with 2% FBS at a concentration of 5 X 10^7 cells/ml. CD34^+ stem cells were isolated by "StemSep™ CD34^+ stem cell selection kit" by following the instructions from the manufacturer (Stem Cell Technologies). Cells were adjusted to 1 x 10^6 cells/ml in complete growth media and maintained in a humidified, 5% CO2 incubator. The complete growth media was IMDM supplemented with 20% FBS, 1% penicillin-streptomycin antibiotics, the recombinant human cytokines (Biosource)Flt-3/Flk-2 ligand (50 ng/ml), stem cell factor (50 ng/ml), interleukin-3 (40ng/ml), and G-CSF (10 ng/ml). The cells were maintained at a density of between 0.5 and 3 x 10^5 cells/ml. The CD34+ stem cells were expanded in culture over an average range of 11 to 23 days. Five groups of expanded CD34+ cells were treated with rolipram (1µM), plus Forskolin (100 µM), an adenylate cyclase activator, for 24 hours and five groups of expanded CD34+ cells were treated with DMSO for 24 hours. After 24 hours, to the 5 sets of cells that were treated with DMSO and 5 groups of cells treated with rolipram plus forskolin, paclitaxel was added to give final concentrations of 0, 30, 100, 300, and 600 nM of paclitaxel respectively and incubated for an additional 24 hours. After the 48 hours of treatment, the cells were counted, washed and re-suspended in PBS with 2% FBS. […] The prepared cells were analyzed on a BD FACSort flow cytometer. […]

[2] = Cell based assays utilized herein, PDE4 inhibitor used alone; settings: without forskolin

For `COc1ccc([C@]2(C#N)CC[C@@H](C(=O)O)CC2)cc1OC1CCCC1` [Ariflo™, cis-4-cyano-4-[3-(cyclopentyloxy)-4-methoxyphenyl]cyclohexane-1-carboxylic acid], the “effect of chemoprotectant regimen on inhibition of tumour cell growth by paclitaxel” value (A549 (lung)) was “no additional protection”, the “effect of chemoprotectant regimen on inhibition of tumour cell growth by paclitaxel” value (HT-29 (colon)) was “no effect on the inhibition of tumour cell growth” and the “effect of chemoprotectant regimen on inhibition of tumour cell growth by paclitaxel” value (RKO (colon)) was “no effect on the inhibition of tumour cell growth”.
Molecule `COc1ccc(C2CNC(=O)C2)cc1OC1CCCC1` (centres unmarked) [Rolipram, rolipram] has a surviving cell fractions ([1]; then paclitaxel 30nM 24 hours, DMSO pretreatment gave 45%) of 86%, a surviving cell fractions ([1]; then paclitaxel 100nM 24 hours, DMSO pretreatment gave 27%) of 81% and a surviving cell fractions ([1]; then paclitaxel 300nM 24 hours, DMSO pretreatment gave 23%) of 63%. For the same molecule, the surviving cell fractions ([1]; then paclitaxel 600nM 24 hours, DMSO pretreatment gave 18%) was 59%, the “effect of chemoprotectant regimen on inhibition of tumour cell growth by paclitaxel” value (A549 (lung)) was “no additional protection” and the “effect of chemoprotectant regimen on inhibition of tumour cell growth by paclitaxel” value (HT-29 (colon)) was “no effect on the inhibition of tumour cell growth”. For the same molecule, the “effect of chemoprotectant regimen on inhibition of tumour cell growth by paclitaxel” value (RKO (colon)) was “no effect on the inhibition of tumour cell growth” and the “protective effect when used alone” value [2] was “little protective effect”.
